Test results as given in US10137103B2, “Compositions and methods for the treatment of fatty acid metabolism disorders” (The Children's Hospital of Philadelphia, priority 2015, dated 2018).
Numbering of substitutions follows the chain as printed.

Experiments:
[1] = target: T1, VLCAD (Mus musculus, UniProt P50544); conditions: liver homogenates
T1 sequence (P50544 42-656): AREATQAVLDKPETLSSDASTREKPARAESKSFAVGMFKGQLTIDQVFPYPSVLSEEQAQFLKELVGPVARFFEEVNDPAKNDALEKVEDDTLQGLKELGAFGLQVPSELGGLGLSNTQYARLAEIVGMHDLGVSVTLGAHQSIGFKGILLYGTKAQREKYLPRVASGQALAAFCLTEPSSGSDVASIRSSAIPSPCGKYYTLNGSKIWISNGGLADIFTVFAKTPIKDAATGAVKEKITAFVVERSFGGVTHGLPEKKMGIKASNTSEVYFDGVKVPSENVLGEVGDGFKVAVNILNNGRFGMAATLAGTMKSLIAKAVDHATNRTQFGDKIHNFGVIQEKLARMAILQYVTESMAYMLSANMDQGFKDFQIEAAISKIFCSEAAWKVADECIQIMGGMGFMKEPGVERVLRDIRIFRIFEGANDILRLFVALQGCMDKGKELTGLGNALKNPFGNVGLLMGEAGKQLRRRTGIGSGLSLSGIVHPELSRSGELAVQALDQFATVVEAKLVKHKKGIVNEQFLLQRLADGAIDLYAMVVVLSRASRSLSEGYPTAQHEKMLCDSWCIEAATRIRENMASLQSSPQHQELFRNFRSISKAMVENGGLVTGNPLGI

[2] = target: T2, wild-type VLCAD (Mus musculus, UniProt P50544); experiment: Hepa 1 to 6 cells expressing FLAG-tagged wild-type VLCAD; type: cell-based; conditions: 250 mM GSNO for 30 minutes
T2 construct: 3xFLAG (C); host or cells: Hepa 1 to 6 cells (mouse hepatocytes)
T2 sequence (P50544 42-656): T1 sequence (P50544 42-656)
Procedure: Hepa 1 to 6 cells were grown in Dulbecco's modified Eagle's medium (DMEM) containing 10% fetal bovine serum, 2 mM glutamine, penicillin (100 U/ml), and streptomycin ([…]) at 37° C. in air with 5% CO2. Cells were plated at a density of 5×10^4 cells/cm^2 and cultured under normal conditions for 24 hours. Cells were transfected with FLAG®-tagged wild-type VLCAD or FLAG®-tagged C238A VLCAD with Lipofectamine® 2000 reagent (Life Technologies) according to the protocol provided by the manufacturer. Forty-eight hours after transfection, the growth medium was replaced with serum-free DMEM, and […] freshly prepared GSNO was added for 30 minutes, after which the cells were extensively washed with PBS. Cell lysates were obtained immediately or 60, 120, and 240 minutes after the removal of GSNO. The samples were protected from UV light exposure. Lysates were assayed for protein concentration, and equal amounts of protein per sample were used for organic mercury-assisted capture.
Additional evidence for the functional consequences of S-nitrosylation of VLCAD was obtained in mouse hepatocytes transiently expressing wild-type VLCAD or a point mutant that could not be S-nitrosylated (C238A). […] Upon removal of GSNO from the media and extensive washing, both the abundance of S-nitrosylated VLCAD and the enzymatic-specific activity declined over time (FIGS. 4A and 4B).

[3] = target: T3, C238A VLCAD mutant (Mus musculus, UniProt P50544, C238A); experiment: Hepa 1 to 6 cells expressing FLAG-tagged C238A VLCAD; type: cell-based; conditions: same experimental conditions
T3 construct: 3xFLAG (C); mutant made in house by QuikChange) Ex-Mm01013-M14; host or cells: Hepa 1 to 6 cells (mouse hepatocytes)
T3 sequence (P50544 42-656 C238A): T1 sequence (P50544 42-656) with C197A
Source text: The QuikChange® Lightning Site-Directed Mutagenesis Kit (Agilent Technologies) was used to introduce single amino acid mutations in complementary DNA encoding VLCAD. A cysteine-to-alanine mutant at amino acid position 238 was generated with Ex-Mm01013-M14 (hereinafter referred to as pVLCAD-3×FLAG®), a plasmid encoding mouse VLCAD fused to three FLAG® tags in the C-terminal region of the protein (GeneCopoeia), as a template. The forward primer 5′-[…]-3′ (SEQ ID NO: 1) and the reverse primer 5′-[…] […]-3′ (SEQ ID NO: 2) were used to substitute an alanine codon for a cysteine codon in pVLCAD-3×FLAG®, thereby generating pVLCAD-C238A-3×FLAG®. The sequence of both pVLCAD-3×FLAG® and pVLCAD-C238A-3×FLAG® was verified before use in subsequent experiments.
Hepa 1 to 6 cells were grown in Dulbecco's modified Eagle's medium (DMEM) containing 10% fetal bovine serum, 2 mM glutamine, penicillin (100 U/ml), and streptomycin ([…]) at 37° C. in air with 5% CO2. Cells were plated at a density of 5×10^4 cells/cm^2 and cultured under normal conditions for 24 hours. Cells were transfected with FLAG®-tagged wild-type VLCAD or FLAG®-tagged C238A VLCAD with Lipofectamine® 2000 reagent (Life Technologies) according to the protocol provided by the manufacturer. […]

[4] = target: T1, VLCAD; experiment: Fraction of S-nitrosylated VLCAD in liver of ob/ob mice (organomercury resin capture); type: in vivo; conditions: treated ob/ob mice
Source text: These findings confirm the MS/MS analysis showing S-nitrosylation of VLCAD in wild-type and GSNO-treated mouse liver but not in PBS-treated ob/ob mouse liver (FIG. 3C). […] This substantial increase in catalytic efficiency can provide efficient removal of fatty acids in ob/ob mouse liver.

[5] = target: T1, VLCAD
[6] = tested on: ob/ob mice; experiment: Liver and serum triglycerides and liver histology in ob/ob mice; type: in vivo, mouse
Source text: Formalin-fixed liver sections were stained with Trichrome Stain Kit (Sigma) according to the manufacturer's instructions. Triglycerides were extracted from liver according to the Folch method (Folch et al. (1957) J. Biol. Chem., 226:497-509). Serum and liver triglyceride concentrations were quantified with a triglyceride quantification kit following the manufacturer's instructions (Abcam). Leptin-deficient mice develop liver steatosis spontaneously under normal chow diet starting at 4 to 5 weeks of life that is characterized by a diminished rate of palmitate oxidation and accumulation of fat droplets in the form of triglycerides within the hepatocytes (Brix et al. (2002) Mol. Genet. Metab., 75:219-226; de Oliveira et al. (2008) J. Am. Coll. Nutr., 27:299-305). […] This significant reduction in the rate of palmitoyl-CoA oxidation indicated a deficiency in mitochondrial β-oxidation of fatty acids. […] GSNO was used to deliver nitric oxide equivalents because of the extensive use of this pharmacological agent in cellular models to modify proteins by S-nitrosylation despite limited cellular permeability (Hara et al. (2005) Nat. Cell Biol., 7:665-674; Chung et al. (2004) Science 304:1328-1331). […] Moreover, the restoration of palmitoyl-CoA oxidation in GSNO-injected ob/ob mice was associated with a significant reduction of the concentration of liver triglycerides.

apparent KM of PBS-injected ob/ob mice relative to GSNO-injected ob/ob mice [1]: more than fivefold higher
Vmax of VLCAD ([1]; vs wild-type and PBS-injected ob/ob mice): similar
S-nitrosylated fraction of wild-type VLCAD [2]: 27±3%
VLCAD-specific activity [2]: fivefold increase
S-nitrosylation of C238A VLCAD [3]: not S-nitrosylated
basal activity of C238A VLCAD [3]: did not change
fraction of VLCAD molecules in liver S-nitrosylated [4]: 25±3%
KM for VLCAD enzymatic activity vs untreated homogenate ([5]; eNOS-/- liver homogenates treated ex vivo (5 μM, 30 minutes)): increased five-fold
SMILES: N[C@@H](CCC(=O)N[C@@H](CSN=O)C(=O)NCC(=O)O)C(=O)O [GSNO, S-nitrosoglutathione]
S-nitrosylation of VLCAD ([5]; eNOS-/- liver homogenates treated ex vivo): readily modified ex vivo at cysteine residue Cys238
fat deposits in liver slices (histology) ([6]; vs PBS-injected): fewer fat deposits
liver triglyceride concentration ([6]; vs PBS-injected): significantly lowered
serum triglyceride concentrations ([6]; vs wild-type and PBS-treated): similar
